Strand notation (5' to 3'): a small letter for the sugar, then the base; units joined by * are phosphorothioate-linked, units joined directly phosphodiester-linked; [ ] holds rarer units or linkages, { } end groups; capitals alone tell only the bases. e = 2'-O-(2-methoxyethyl) (MOE); [5mC] = 5-methylcytosine; d = 2'-deoxy (DNA)
System: human PKK mRNA
Assay: Antisense inhibition of human PKK mRNA in HepaRG cells, 5,000 nM (Example 2)
Type: cell-based
How it was run: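 qRT-PCR (RTS3454) read-out, RIBOGREEN-normalized; % inhibition vs untreated cells. HepaRG, 20,000 cells/well, electroporation, 5,000 nM ASO, ~24 h.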

[1] = human PKK mRNA, HepaRG cells, 5,000 nM antisense oligonucleotide, Table 18
[2] = HepaRG cells, 5,000 nM antisense oligonucleotide, 5-10-5 gapmers, Table 16
[3] = HepaRG cells, electroporation, 5,000 nM antisense oligonucleotide, approx. 24 hours, primer probe set RTS3454, relative to untreated control cells, Table 12
[4] = HepaRG cells, electroporation with 5,000 nM antisense oligonucleotide, approximately 24 hours, PKK mRNA by RT-PCR (RTS3454), relative to untreated control cells, Table 5 experiment
[5] = human PKK mRNA, HepaRG cells, 5-10-5 motif oligonucleotides targeting SEQ ID NO: 1 and 10
[6] = Table 9 experiment, HepaRG cells, 20,000 cells per well, electroporation with 5,000 nM antisense oligonucleotide, approx. 24 hours, PKK mRNA by RT-PCR (RTS3454), relative to untreated control cells
[7] = Table 10 experiment, HepaRG cells, 20,000 cells per well, electroporation with 5,000 nM antisense oligonucleotide, approx. 24 hours, PKK mRNA by RT-PCR (RTS3454), relative to untreated control cells
[8] = human PKK mRNA in HepaRG cells, 5-10-5 gapmers, Table 14
[9] = HepaRG cells, 5,000 nM antisense oligonucleotide, human PKK mRNA, Table 18
[10] = HepaRG cells, 5,000 nM antisense oligonucleotide, 5-10-5 gapmers, Table 17

Substance: 546799 (eA*eT*eG*eA*eA*dG*dG*dG*d[5mC]*dG*dA*dG*dG*d[5mC]*dG*e[5mC]*eA*eG*eT*eG; antisense) [compound 546799]
- % inhibition (Table 13, human PKK mRNA in HepaRG cells, 5-10-5 gapmers): 5%

Substance: 548781 (antisense eA*e[5mC]*e[5mC]*eT*dA*dT*dA*dA*d[5mC]*dT*dA*dT*dA*eA*e[5mC]*eA*eG) [compound 548781]
- % inhibition [1]: 0%

Substance: 547720 (eG*eA*eA*eA*eG*dA*d[5mC]*dG*dG*d[5mC]*d[5mC]*dA*dA*dT*dG*eG*eG*eA*eA*eA; antisense) [compound 547720]
- % inhibition [2]: 8%

Substance: 547704 (antisense eA*e[5mC]*eA*eT*e[5mC]*dT*dT*dG*dT*d[5mC]*dA*dT*dT*dA*dA*e[5mC]*eA*eT*e[5mC]*e[5mC]) [compound 547704]
- % inhibition [2]: 61%

Substance: 547550 (antisense e[5mC]*e[5mC]*e[5mC]*e[5mC]*eA*dT*dG*d[5mC]*dA*dT*dA*d[5mC]*dT*d[5mC]*dG*e[5mC]*e[5mC]*eT*eT*eT) [compound 547550]
- % inhibition [3]: 53%

Substance: 547302 (antisense e[5mC]*e[5mC]*eA*eT*eG*dT*d[5mC]*dA*dT*dT*dG*dA*dT*dT*dG*eA*eA*e[5mC]*eT*eT) [compound 547302]
- % inhibition [4]: 58%

Substance: 546895 (eT*eA*eT*e[5mC]*eA*d[5mC]*dT*dG*dT*d[5mC]*d[5mC]*dT*dA*dT*dG*eT*e[5mC]*eA*e[5mC]*eT; antisense) [compound 546895]
- % inhibition [5]: 77%

Substance: 547432 (e[5mC]*e[5mC]*e[5mC]*eA*eG*dT*dG*dT*dT*dA*d[5mC]*dA*d[5mC]*dA*dA*eT*e[5mC]*eT*e[5mC]*eA; antisense) [compound 547432]
- % inhibition (Table 8, HepaRG cells, electroporation with 5,000 nM antisense oligonucleotide, approx. 24 hours, PKK mRNA by RT-PCR (RTS3454), relative to untreated control cells): 90%

Substance: 546350 (antisense e[5mC]*e[5mC]*e[5mC]*eT*eG*d[5mC]*dG*dG*dG*d[5mC]*dA*d[5mC]*dA*dG*d[5mC]*e[5mC]*eT*eT*e[5mC]*eA) [compound 546350]
- % inhibition [6]: 88%
- % inhibition [7]: 74%

Substance: 546914 (eA*eT*eA*eT*e[5mC]*dA*d[5mC]*dT*dG*dT*dA*d[5mC]*d[5mC]*dT*dA*eT*eA*eT*e[5mC]*eA; antisense) [compound 546914]
- % inhibition [2]: 52%

Substance: 547538 (antisense e[5mC]*e[5mC]*eA*eG*e[5mC]*dA*dG*dA*dA*dA*dT*d[5mC]*d[5mC]*dT*dG*eT*eG*e[5mC]*eA*eT) [compound 547538]
- % inhibition [3]: 77%

Substance: 546172 (antisense eA*eA*e[5mC]*eA*e[5mC]*dT*dA*dT*d[5mC]*dT*dT*dT*d[5mC]*dA*dA*eG*eA*eA*eG*e[5mC]) [compound 546172]
- % inhibition [4]: 81%

Substance: 547688 (antisense e[5mC]*eA*e[5mC]*eT*eG*dT*d[5mC]*d[5mC]*dT*dA*dT*dA*dA*d[5mC]*dT*eA*eT*eA*eT*e[5mC]) [compound 547688]
- % inhibition [2]: 47%

Substance: 546385 (eA*eT*eT*eG*eT*d[5mC]*d[5mC]*dT*d[5mC]*dA*dG*d[5mC]*dA*dG*d[5mC]*eT*e[5mC]*eT*eG*eA; antisense) [compound 546385]
- % inhibition (HepaRG cells, electroporation, 5,000 nM antisense oligonucleotide, approx. 24 hours, primer probe set RTS3454, relative to untreated control cells, Table 11): 67%

Substance: 548776 (antisense e[5mC]*e[5mC]*eT*eA*dT*dA*dA*d[5mC]*dT*dA*dT*dA*dA*e[5mC]*eA*eA*eT) [compound 548776]
- % inhibition [1]: 0%

Substance: 547597 (antisense e[5mC]*eA*eA*eT*eA*dT*d[5mC]*dA*d[5mC]*dT*dG*dT*d[5mC]*d[5mC]*dT*eA*eT*eA*eT*e[5mC]) [compound 547597]
- % inhibition [8]: 29%

Substance: 546915 (eT*e[5mC]*eA*e[5mC]*eT*dG*dT*d[5mC]*d[5mC]*dT*dA*dT*dA*dA*d[5mC]*eT*eA*eT*eA*eT; antisense) [compound 546915]
- % inhibition [2]: 39%

Substance: 548711 (DNA e[5mC]*eT*eG*dT*dA*d[5mC]*dT*dA*dG*dT*dT*dT*d[5mC]*e[5mC]*eT*eA; antisense) [compound 548711]
- % inhibition [9]: 21%

Substance: 546453 (e[5mC]*eT*e[5mC]*eA*eT*dT*dG*dT*dT*dG*dT*dG*dT*dG*dG*e[5mC]*e[5mC]*e[5mC]*eT*e[5mC]; antisense) [compound 546453]
- % inhibition [3]: 82%

Substance: 547684 (antisense eT*eA*eA*e[5mC]*eT*dA*dT*dA*dT*d[5mC]*dA*d[5mC]*dT*dG*dT*e[5mC]*e[5mC]*eT*eA*eT) [compound 547684]
- % inhibition [2]: 43%

Substance: 546511 (eG*eT*eG*eA*eT*dG*dA*dA*dA*dG*dT*dA*d[5mC]*dA*dG*e[5mC]*eA*eG*e[5mC]*eA; antisense) [compound 546511]
- % inhibition [3]: 50%

Substance: 547539 (antisense eA*eG*eA*eA*e[5mC]*dT*d[5mC]*d[5mC]*dA*dG*d[5mC]*dA*dG*dA*dA*eA*eT*e[5mC]*e[5mC]*eT) [compound 547539]
- % inhibition [3]: 43%

Substance: 547081 (e[5mC]*eT*eG*eT*eA*dG*dT*d[5mC]*d[5mC]*dA*d[5mC]*dT*dA*d[5mC]*dA*e[5mC]*eA*eG*e[5mC]*eA; antisense) [compound 547081]
- % inhibition [10]: 83%

Substance: 546866 (eG*eT*eT*eT*e[5mC]*d[5mC]*dT*dA*dT*dA*dA*d[5mC]*dT*dA*dT*eA*eA*e[5mC]*eA*eA; antisense) [compound 546866]
- % inhibition [8]: 35%

Substance: 546909 (eA*eA*e[5mC]*eA*eA*dT*dA*dT*d[5mC]*dA*d[5mC]*dT*dG*dT*dA*e[5mC]*e[5mC]*eT*eT*eT; antisense) [compound 546909]
- % inhibition [5]: 44%

Substance: 546222 (antisense eG*eG*eG*eT*eG*dA*dT*dA*dG*dG*dT*dG*d[5mC]*dA*dG*eA*eT*eG*eG*eT) [compound 546222]
- % inhibition (Table 7, HepaRG cells, electroporation with 5,000 nM antisense oligonucleotide, approx. 24 hours, PKK mRNA by RT-PCR (RTS3454), relative to untreated control cells): 12%

Substance: 547756 (antisense eG*eG*eG*eT*e[5mC]*dT*dT*dG*d[5mC]*dT*d[5mC]*d[5mC]*dA*d[5mC]*d[5mC]*e[5mC]*eA*e[5mC]*eA*eT) [compound 547756]
- % inhibition [10]: 49%

Substance: 547289 (antisense eT*eT*e[5mC]*eA*eT*dA*dG*dA*dG*dT*dT*dG*dA*dG*dT*e[5mC]*eA*eG*eA*e[5mC]) [compound 547289]
- % inhibition [4]: 74%

Substance: 546869 (eT*eG*eT*eA*e[5mC]*d[5mC]*dT*dA*dT*dA*dA*d[5mC]*dT*d[5mC]*dT*eA*eA*e[5mC]*eA*eG; antisense) [compound 546869]
- % inhibition [8]: 53%

Substance: 546348 (antisense eG*e[5mC]*eA*eA*eA*d[5mC]*dT*dA*dA*dG*dG*dG*dA*d[5mC]*d[5mC]*eA*e[5mC]*e[5mC]*eT*eG) [compound 546348]
- % inhibition [6]: 79%
- % inhibition [7]: 76%

Substance: 546496 (eA*eT*eG*e[5mC]*eA*dT*dA*d[5mC]*dT*d[5mC]*dG*d[5mC]*d[5mC]*dT*dT*eT*eG*eT*eG*eA; antisense) [compound 546496]
- % inhibition [3]: 54%

Substance: 546146 (eT*eG*eA*eG*eT*d[5mC]*dA*dG*dA*d[5mC]*dA*dT*d[5mC]*d[5mC]*dA*e[5mC]*eA*eG*eG*eA; antisense) [compound 546146]
- % inhibition [4]: 72%

Substance: 548721 (DNA e[5mC]*eT*eG*dT*dA*d[5mC]*dT*dA*dG*dT*dT*dT*d[5mC]*e[5mC]*eT*eA*eT; antisense) [compound 548721]
- % inhibition [9]: 27%

Substance: 547482 (antisense e[5mC]*e[5mC]*e[5mC]*e[5mC]*eT*dT*d[5mC]*dT*dT*dT*dA*dT*dA*dG*d[5mC]*e[5mC]*eA*eG*e[5mC]*eA) [compound 547482]
- % inhibition [6]: 90%
- % inhibition [7]: 65%

Substance: 546425 (eG*eG*eT*e[5mC]*eA*dA*dT*d[5mC]*dT*dG*dA*d[5mC]*dT*dA*dG*eT*eG*eA*eA*eT; antisense) [compound 546425]
- % inhibition [3]: 69%

Reference: patent US11840686B2, “Modulation of prekallikrein (PKK) expression” (Ionis Pharmaceuticals, Inc., priority 2013, dated 2023)
